Assay results from US6960614B2, “Oxygenated esters of 4-lodo phenylamino benzhydroxamic acids” (Warner-Lambert Company, priority 2000, dated 2005).

System: MEK
Test: Cellular Assay for Measuring MEK Inhibition (inhibition of ERK phosphorylation in C26 cells, Western blot)
Format: cell-based, murine
Settings: for % Inhibition @ 0.1 μM / % Inhibition @ 1 μM / % Inhibition @ 10 μM: ERK phosphorylation in C26 cells; for IC50: inhibition of ERK phosphorylation in murine colon 26 (C26) carcinoma cells, determined graphically from dose response curve
Experimental: The evaluation of the compounds as MEK inhibitors was performed in an assay that measures their ability to inhibit phosphorylation of MAP kinase […]) in murine colon 26 (C26) carcinoma cells. Since ERK1 and ERK2 represent the only known substrates for MEK, measurement of inhibition of ERK phosphorylation in cells provides direct readout of cellular MEK inhibition by the compounds of the invention. Briefly, the assay involves treating exponentially growing C26 cells with varying concentrations of the test compound (or vehicle control) for […] at 37° C. Cells are then rinsed free of compound/vehicle and lysed in a solution containing 70 mM NaCl, 50 mM glycerol phosphate, 10 mM HEPES, pH 7.4, 1% Triton X-100, 1 mM Na3VO4, 100 μM PMSF, 10 μM leupeptin and 10 μM pepstatin. Supernatants are then subjected to gel electrophoresis and Western blotting using a primary antibody recognizing dually phosphorylated ERK1 and ERK2. To evaluate total MAPK levels, blots were subsequently ‘stripped’ and re-probed with a 1:1 mixture of polyclonal antibodies recognizing unphosphorylated ERK1 and ERK2.

IC50 | Compound | % Inhibition @ 0.1 μM | % Inhibition @ 1 μM | % Inhibition @ 10 μM
 | CCC(O)CONC(=O)c1cc(Cl)c(F)c(F)c1Nc1ccc(I)cc1F (centres unmarked) [Example 114, 5-Chloro-3,4-difluoro-2-(2-fluoro-4-iodo-phenylamino)-N-(2-hydroxy-butoxy)-benzamide] | 90.5% | 97.3% | 
 | CCC(O)CONC(=O)c1cc(F)c(F)cc1Nc1ccc(I)cc1F (centres unmarked) [Example 115, 4,5-Difluoro-2-(2-fluoro-4-iodo-phenylamino)-N-(2-hydroxy-butoxy)-benzamide] | 94.8% | 98.5% | 
 | CCC(O)CONC(=O)c1cc(Cl)c(F)c(F)c1Nc1ccc(F)cc1F (centres unmarked) [Example 116, 5-Chloro-2-(2,4-difluoro-phenylamino)-3,4-difluoro-N-(2-hydroxy-butoxy)-benzamide] |  | 62.8% | 75.8%
 | CCC(O)CONC(=O)c1ccc(F)c(F)c1Nc1ccc(F)cc1F (centres unmarked) [Example 117, 2-(2,4-Difluoro-phenylamino)-3,4-difluoro-N-(2-hydroxy-butoxy)-benzamide] | 0% | 66.7% | 86.9%
 | CCC(O)CONC(=O)c1ccc(F)c(F)c1Nc1ccc(Br)cc1F (centres unmarked) [Example 118, 2-(4-Bromo-2-fluoro-phenylamino)-3,4-difluoro-N-(2-hydroxy-butoxy)-benzamide] | 74.6% | 95.6% | 
 | Cc1cc(I)ccc1Nc1c(C(=O)NOC(C)CO)cc(Cl)c(F)c1F (centres unmarked) [Example 119, 5-Chloro-3,4-difluoro-N-(2-hydroxy-1-methyl-ethoxy)-2-(4-iodo-2-methyl-phenylamino)-benzamide] | 87.4% | 97.9% | 
14 nM | CC(CO)ONC(=O)c1ccc(F)c(F)c1Nc1ccc(I)cc1Cl (centres unmarked) [Example 120, 2-(2-Chloro-4-iodo-phenylamino)-3,4-difluoro-N-(2-hydroxy-1-methyl-ethoxy)-benzamide] |  |  | 
 | CC(CO)ONC(=O)c1cc(F)c(F)c(F)c1Nc1ccc(I)cc1Cl (centres unmarked) [Example 121, 2-(2-Chloro-4-iodo-phenylamino)-3,4,5-trifluoro-N-(2-hydroxy-1-methyl-ethoxy)-benzamide] | 46.9% | 85.5% | 
 | Cc1cc(I)ccc1Nc1c(C(=O)NOC(C)CO)cc(F)c(F)c1F (centres unmarked) [Example 122, 3,4,5-Trifluoro-N-(2-hydroxy-1-methyl-ethoxy)-2-(4-iodo-2-methyl-phenylamino)-benzamide] | 49.6% | 87.3% | 
21 nM | CC(CO)ONC(=O)c1cc(Br)c(F)c(F)c1Nc1ccc(I)cc1Cl (centres unmarked) [Example 123, 5-Bromo-2-(2-chloro-4-iodo-phenylamino)-3,4-difluoro-N-(2-hydroxy-1-methyl-ethoxy)-benzamide] |  |  | 
 | Cc1cc(I)ccc1Nc1c(C(=O)NOC(C)CO)cc(Br)c(F)c1F (centres unmarked) [Example 124, 5-Bromo-3,4-difluoro-N-(2-hydroxy-1-methyl-ethoxy)-2-(4-iodo-2-methyl-phenylamino)-benzamide] | 78% | 96.9% | 
 | CC(CO)ONC(=O)c1ccc(F)c(F)c1Nc1ccc(Cl)cc1F (centres unmarked) [Example 125, 2-(4-Chloro-2-fluoro-phenylamino)-3,4-difluoro-N-(2-hydroxy-1-methyl-ethoxy)-benzamide] | 9.1% | 89% | 
26 nM | Cc1cc(I)ccc1Nc1c(C(=O)NOC(C)CO)ccc(F)c1F (centres unmarked) [Example 126, 3,4-Difluoro-N-(2-hydroxy-1-methyl-ethoxy)-2-(4-iodo-2-methyl-phenylamino)-benzamide] |  |  | 
25 nM | CC(CO)ONC(=O)c1cc(Cl)c(F)c(F)c1Nc1ccc(I)cc1Cl (centres unmarked) [Example 127, 5-Chloro-2-(2-chloro-4-iodo-phenylamino)-3,4-difluoro-N-(2-hydroxy-1-methyl-ethoxy)-benzamide] |  |  | 
9 nM | CC(CO)ONC(=O)c1ccc(F)c(F)c1Nc1ccc(I)cc1F (centres unmarked) [Example 128, 3,4-Difluoro-2-(2-fluoro-4-iodo-phenylamino)-N-(2-hydroxy-1-methyl-ethoxy)-benzamide] |  |  | 
 | CC(CO)ONC(=O)c1cc(Br)c(F)c(F)c1Nc1ccc(I)cc1F (centres unmarked) [Example 129, 5-Bromo-3,4-difluoro-2-(2-fluoro-4-iodo-phenylamino)-N-(2-hydroxy-1-methyl-ethoxy)-benzamide] | 100% | 100% | 
4 nM | CC(CO)ONC(=O)c1cc(Cl)c(F)c(F)c1Nc1ccc(I)cc1F (centres unmarked) [Example 130, 5-Chloro-3,4-difluoro-2-(2-fluoro-4-iodo-phenylamino)-N-(2-hydroxy-1-methyl-ethoxy)-benzamide] |  |  | 
 | CC(CO)ONC(=O)c1cc(F)c(F)cc1Nc1ccc(I)cc1F (centres unmarked) [Example 131, 4,5-Difluoro-2-(2-fluoro-4-iodo-phenylamino)-N-(2-hydroxy-1-methyl-ethoxy)-benzamide] | 78.7% | 91.3% | 
 | CC(CO)ONC(=O)c1cc(Cl)c(F)c(F)c1Nc1ccc(F)cc1F (centres unmarked) [Example 132, 5-Chloro-2-(2,4-difluoro-phenylamino)-3,4-difluoro-N-(2-hydroxy-1-methyl-ethoxy)-benzamide] |  | 45.7% | 80.6%
 | CC(CO)ONC(=O)c1ccc(F)c(F)c1Nc1ccc(F)cc1F (centres unmarked) [Example 133, 2-(2,4-Difluoro-phenylamino)-3,4-difluoro-N-(2-hydroxy-1-methyl-ethoxy)-benzamide] | 0% | 26.4% | 
370 nM | COCCONC(=O)c1ccc(F)c(F)c1Nc1ccc(I)cc1Cl [Example 134, 2-(2-Chloro-4-iodo-phenylamino)-3,4-difluoro-N-(2-methoxy-ethoxy)-benzamide] |  |  | 
 | COCCONC(=O)c1cc(F)c(F)c(F)c1Nc1ccc(I)cc1Cl [Example 135, 2-(2-Chloro-4-iodo-phenylamino)-3,4,5-trifluoro-N-(2-methoxy-ethoxy)-benzamide] | 0% | 41.4% | 
250 nM | COCCONC(=O)c1ccc(F)c(F)c1Nc1ccc(I)cc1C [Example 136, 3,4-Difluoro-2-(4-iodo-2-methyl-phenylamino)-N-(2-methoxy-ethoxy)-benzamide] |  |  | 
100 nM | COCCONC(=O)c1cc(Br)c(F)c(F)c1Nc1ccc(I)cc1C [Example 137, 5-Bromo-3,4-difluoro-2-(4-iodo-2-methyl-phenylamino)-N-(2-methoxy-ethoxy)-benzamide] |  |  | 
 | COCCONC(=O)c1cc(F)c(F)c(F)c1Nc1ccc(I)cc1C [Example 138, 3,4,5-Trifluoro-2-(4-iodo-2-methyl-phenylamino)-N-(2-methoxy-ethoxy)-benzamide] | 0% | 19.6% | 
360 nM | COCCONC(=O)c1cc(Br)c(F)c(F)c1Nc1ccc(I)cc1Cl [Example 139, 5-Bromo-2-(2-chloro-4-iodo-phenylamino)-3,4-difluoro-N-(2-methoxy-ethoxy)-benzamide] |  |  | 
450 nM | COCCONC(=O)c1cc(Cl)c(F)c(F)c1Nc1ccc(I)cc1Cl [Example 140, 5-Chloro-2-(2-chloro-4-iodo-phenylamino)-3,4-difluoro-N-(2-methoxy-ethoxy)-benzamide] |  |  | 
